The values that follow come from patent US7632861B2, “Substituted heterocyclic ethers and their use in CNS disorders” (Bristol-Myers Squibb Company, priority 2007, dated 2009).

One assay deals with T1, NK-1 (Homo sapiens, UniProt P25103).
T1 construct: endogenous in cells; host or cells: U373 cells (crude membranes)
As to the kind of experiment: NK1 radioligand binding assay ([125I]Substance P, U373 cell membranes). The note with it: 1 hour at room temperature. On the procedure:
(§1) NK-1 Binding assay. Crude membrane suspensions were prepared for the NK1 and SERT radioligand binding assays from U373 cells or recombinant HEK-293 cells expressing hSERT, respectively. Cells were harvested from T-175 flasks as follows. The medium is removed from the flasks and the cells rinsed with HBSS without Ca and without Mg. The cells are then incubated for 5-10 minutes in 10 mM Tris-Cl, pH 7.5, 5 mM EDTA before the cells are lifted with a combination of pipetting and scraping, as needed. To prepare membranes, the cell suspension is collected into centrifuge bottles and homogenized for 30 seconds with a Polytron homogenizer. The suspension is centrifuged for 30 min @ 32,000×g, 4° C., then the supernatant is decanted and the pellet resuspended and homogenized in 50 mM Tris-Cl, pH 7.5, 1 mM EDTA for 10 seconds. The suspension is then centrifuged again for 30 min @ 32,000×g, 4° C. The supernatant is decanted and the pellet resuspended in 50 mM Tris-Cl, pH 7.5, 1 mM EDTA and briefly homogenized. A Bradford assay (Bio-rad) is performed and the membrane preparation diluted to 2 mg/ml with 50 mM Tris-Cl, pH 7.5, 1 mM EDTA. Aliquots are prepared, and then frozen and stored at −80° C.
NK1 radioligand binding assay. Compounds are dissolved in 100% DMSO at a concentration 100× the desired highest assay concentration, serially diluted 1:3 in 100% DMSO, and 0.6 ul/well of each solution is dispensed to a Nunc polypropylene, round bottom, 384 well plate. 100% inhibition is defined with 0.6 ul/well of 1 mM L-733,060 (Sigma L-137) dissolved in DMSO. 30 ul/well of a 2×U373 membrane preparation (267 ug/ml in 100 mM Tris-Cl, pH 7.5, 6 mM MgCl2, 0.2% (v/v) Sigma mammalian protease inhibitor cocktail (Sigma P-8340), and 4 ug/ml chymostatin, Sigma C-7268) and 30 ul/well of a 2×radioligand solution (400 pM [^125I]Substance P (Perkin Elmer NEX-190) in 1% (w/v) BSA (Sigma A-2153), 0.1 mg/ml bacitracin, Sigma B-0125) are added to the well and the reaction incubated for 1 hour at room temperature. The contents of the assay plate are then transferred to a Millipore MultiscreenHTS GF/B filter plate which has been pretreated with 0.5% PEI for at least one hour. The plate is vacuum filtered and washed with 7 washes of 100 ul/well of 20 mM Tris-Cl, pH 7.5, 0.5% (w/v) BSA chilled to 4° C. The filtration and washing is completed in less than 90 s. The plates are air-dried overnight, 12 ul/well of MicroScint scintillation fluid added, and the plates counted in a Trilux.
(§2) Data analysis. The raw data are normalized to percent inhibition using control wells defining 0% (DMSO only) and 100% (selective inhibitor) inhibition which are run on each plate. Each plate is run in triplicate, and the concentration response curve thus generated is fit using the four-parameter dose response equation, Y=Bottom+(Top-Bottom)/(1+10^((LogIC50-X)*HillSlope)) in order to determine the IC50 value for each compound. The radioligand concentration chosen for each assay corresponds to the Kd concentration determined through saturation binding analysis for each assay.

Another assay addresses T2, hSERT (Homo sapiens, UniProt P31645).
T2 construct: expressed in transfected cells; host or cells: HEK-293 cells (crude membranes)
The experiment in a line: SERT radioligand binding assay ([125I]RTI-55, HEK-hSERT membranes). The note with it: [125I]RTI-55, 1 hour at room temperature. The procedure: as §1
SERT radioligand binding assay. Compounds are dissolved in 100% DMSO at a concentration 100× the desired highest assay concentration, serially diluted 1:3 in 100% DMSO, and 0.4 ul/well of each solution is dispensed to a Nunc polypropylene, round bottom, 384 well plate. 100% inhibition is defined with 0.4 ul/well of 1 mM fluoxetine (Sigma F-132) dissolved in DMSO. 20 ul/well of a 2×HEK-hSERT membrane preparation (15 ug/ml in 50 mM Tris-Cl, pH 7.5, 120 mM NaCl, 5 mM KCl) and 20 ul/well of a 2×radioligand solution (520 pM [^125I]RTI-55 (Perkin-Elmer NEX-272) in 50 mM Tris-Cl, pH 7.5, 120 mM NaCl, 5 mM KCl) are added to each well and the reaction incubated for 1 hour at room temperature. The contents of the assay plate are then transferred to a Millipore MultiscreenHTS GF/B filter plate which has been pretreated with 0.5% PEI for at least one hour. The plate is vacuum filtered and washed with 7 washes of 100 ul/well of 50 mM Tris-Cl, pH 7.5, 120 mM NaCl, 5 mM KCl chilled to 4° C. The filtration and washing is completed in less than 90 s. The plates are air-dried overnight, 12 ul/well of MicroScint scintillation fluid added, and the plates counted in a Trilux.
as §2

Molecules are shown by their SMILES. pIC50: −log10 of the molar value.

T2 sequence (P31645 whole entry): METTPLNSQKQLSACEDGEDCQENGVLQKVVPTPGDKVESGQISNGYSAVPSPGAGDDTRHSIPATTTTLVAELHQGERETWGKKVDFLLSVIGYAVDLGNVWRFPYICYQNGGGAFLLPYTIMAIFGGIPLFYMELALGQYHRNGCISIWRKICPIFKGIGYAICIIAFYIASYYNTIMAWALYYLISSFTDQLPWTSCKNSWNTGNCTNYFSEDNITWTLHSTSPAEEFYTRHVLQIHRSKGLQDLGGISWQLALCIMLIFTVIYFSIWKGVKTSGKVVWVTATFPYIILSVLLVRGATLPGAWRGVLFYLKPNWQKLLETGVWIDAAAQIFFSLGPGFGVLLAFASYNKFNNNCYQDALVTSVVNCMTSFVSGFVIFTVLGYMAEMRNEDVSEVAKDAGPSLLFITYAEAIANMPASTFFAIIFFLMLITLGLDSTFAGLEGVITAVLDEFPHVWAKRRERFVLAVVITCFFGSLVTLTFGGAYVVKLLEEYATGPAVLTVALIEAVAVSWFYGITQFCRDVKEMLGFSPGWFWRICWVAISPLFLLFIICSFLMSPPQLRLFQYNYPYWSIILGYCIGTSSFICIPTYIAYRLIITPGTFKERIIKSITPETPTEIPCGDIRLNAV
T1 sequence (P25103 whole entry): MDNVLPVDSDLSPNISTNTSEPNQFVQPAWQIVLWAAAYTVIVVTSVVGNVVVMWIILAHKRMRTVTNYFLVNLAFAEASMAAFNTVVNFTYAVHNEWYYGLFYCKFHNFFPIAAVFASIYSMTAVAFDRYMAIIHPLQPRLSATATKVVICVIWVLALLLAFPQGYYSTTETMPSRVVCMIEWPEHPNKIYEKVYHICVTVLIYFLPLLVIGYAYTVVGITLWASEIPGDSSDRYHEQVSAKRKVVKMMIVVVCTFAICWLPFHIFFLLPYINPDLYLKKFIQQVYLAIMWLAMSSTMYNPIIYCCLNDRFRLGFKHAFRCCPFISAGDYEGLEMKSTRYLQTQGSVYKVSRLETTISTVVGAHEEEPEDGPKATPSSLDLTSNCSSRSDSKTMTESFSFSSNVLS

By pIC50 is commonly meant the IC50 on a negative log10 scale, so that one unit is a factor of ten. Turning to `NCCC1(COCc2cc(C(F)(F)F)cc(C(F)(F)F)c2)OCc2ccccc21` (stereo not drawn) [Example 35, 2-(1-((3,5-Bis(trifluoromethyl)benzyloxy)methyl)-1,3-dihydroisobenzofuran-1-yl)ethanamine], the results for the pIC50 on NK-1 and at hSERT were 7.00 to 11.00 and 6.52 to 7.00, respectively.

For `CN(C)CCC1(COCc2cc(C(F)(F)F)cc(C(F)(F)F)c2)OCc2ccccc21` (stereo not drawn) [Example 36, 2-(1-((3,5-Bis(trifluoromethyl)benzyloxy)methyl)-1,3-dihydroisobenzofuran-1-yl)-N,N-dimethylethanamine], the pIC50 at NK-1 and on hSERT was 7.00 to 11.00 each time.

As to `NCCCC1(COCc2cc(C(F)(F)F)cc(C(F)(F)F)c2)OCc2ccccc21` (stereo not drawn) [Example 37, 3-(1-((3,5-Bis(trifluoromethyl)benzyloxy)methyl)-1,3-dihydroisobenzofuran-1-yl)propan-1-amine], the pIC50 on NK-1 and on hSERT was 7.00 to 11.00 in each case.

As for `CN(C)CCCC1(COCc2cc(C(F)(F)F)cc(C(F)(F)F)c2)OCc2ccccc21` (stereo not drawn) [Example 38, 3-(1-((3,5-is(trifluoromethyl)benzyloxy)methyl)-1,3-dihydroisobenzofuran-1-yl)-N,N-dimethylpropan-1-amine], the pIC50 at NK-1 is 7.00 to 11.00; on hSERT, less than 6.52.

As to `NCCC1(COCc2cc(C(F)(F)F)cc(C(F)(F)F)c2)OCCc2ccccc21` (stereo not drawn) [Example 39, 2-(1-((3,5-Bis(trifluoromethyl)benzyloxy)methyl)isochroman-1-yl)ethanamine], the pIC50 at NK-1 and at hSERT was 7.00 to 11.00 each time.

Regarding `CN(C)CCC1(COCc2cc(C(F)(F)F)cc(C(F)(F)F)c2)OCCc2ccccc21` (stereo not drawn) [Example 40, 2-(1-((3,5-Bis(trifluoromethyl)benzyloxy)methyl)isochroman-1-yl)-N,N-dimethylethanamine], the pIC50 at NK-1 and at hSERT was 7.00 to 11.00 each time.
